Results reported in patent US8399024B2, “Water-insoluble medicine” (Ebara Corporation, priority 2006, dated 2013).
Structures can show the parent of a compound that is named as a salt. Where two headings read alike, the source gives them in different places. Blank lines part the entries; values can stand above or below the compound they belong to.

Assays:
[1] = system: human gastric cancer H-23 (moderately differentiated-type adenocarcinoma); assay: Anti-tumor effect using nude mice-transplanted human tumor (Example 2); format: in vivo, BALB/cAJcl-nu nude mouse; details: 60 mg/kg i.v. q4d×4, final day d35
[2] = Influence of the drug on the host: change in weight and symptoms (Example 3); format: in vivo, BALB/cAJcl-nu nude mouse; details: 60 mg/kg i.v. d7, d11, d14
Experimental: The experiment was ended after 4 weeks from the starting day of administration. The tumor cell diameter was measured twice a week, and the weight was measured at the time of administration, so as to monitor the state of tumor cell proliferation and effect of drug administration, as well as any other physical changes. The mice were kept in a small vinyl isolator throughout the experiment, except for when they were moved to a clean bench through a sleeve to perform tumor cell transplantation, administration or weight measurement.
The influence of the drug on the host was evaluated by considering the change in weight and the expression of symptoms.

[3] = system: human gastric cancer H-23 (moderately differentiated-type adenocarcinoma); assay: Anti-tumor effect using nude mice-transplanted human tumor (Example 3); details: 60 mg/kg i.v. d7, d11, d14
MCF-7 tumor cells = assay: Cytotoxicity test, viable cell count with Cell Counting Kit-8 (WST-8); format: cell-based; details: read-out: 50% inhibiting activity
Experimental: Ellipticine which had been size-reduced by laser beam irradiation (concentration: 2 μg/ml) was diluted with the below-mentioned culturing solution, and test samples having concentrations of 1 μg/ml, 0.5 μg/ml, 0.25 μg/ml and 0.125 μg/ml were prepared. MCF-7 (MEM-culture medium) and L-1210 (RPMI-1640 culture medium) tumor cells were used as target cells. The cytotoxicity was evaluated by counting the number of viable cells following 24 hours of culturing, using Cell Counting Kit-8. More specifically, WST-8 (U.S. Pat. No. 2,757,348) as an indicate for dehydrogenase activities was used, and the color at 450 nm was evaluated. Viability(%)=(Asamples−Ablank)/(Ano-samples−Ablank) 100%
(§1) The cytotoxicity of the SN-38 nano particles was evaluated by counting the number of viable cells following 24 hours of culturing in the same manner as in the cytotoxicity test of ellipticine as described in item (3-4) of Example 1. The 50% inhibiting activity for MCF-7 cells was 100 nM.
as §1, with “10-hydroxy-camptothecin” for “SN-38”, “72” for “24”

body state [2]: not good | maximum weight loss (max. wt. loss) [2]: 0.4%
SMILES: CCc1c2c(nc3ccc(OC(=O)N4CCC(N5CCCCC5)CC4)cc13)-c1cc3c(c(=O)n1C2)COC(=O)[C@]3(O)CC [CPT-11, irinotecan hydrochloride]
drug effect evaluation [1]: non-effective (IR of below 58%) | evaluation of max. IR ([3]; d18): effective (IR≧58%) | max. IR ([3]; d18): 69.0% | drug effect evaluation ([3]; d21): non-effective (IR of below 58%) | drug effect evaluation ([3]; final day d35): non-effective (IR of below 58%)

SMILES: CC[C@@]1(O)C(=O)OCc2c1cc1n(c2=O)Cc2cc3cc(O)ccc3nc2-1 [DMSO solution of 10-hydroxy-camptothecin, 10-hydroxy-camptothecin]
IC50 (MCF-7 tumor cells; MCF-7, 72 hours of culturing): 0.1 µM

SMILES: CCc1c2c(nc3ccc(O)cc13)-c1cc3c(c(=O)n1C2)COC(=O)[C@]3(O)CC [DMSO solution of SN-38, 7-ethyl-10-hydroxycamptothecin]
IC50 (MCF-7 tumor cells; MCF-7, 24 hours of culturing): 0.5 µM
